The GI50 is the concentration giving 50% growth inhibition. Lower therefore signals greater sensitivity of the cells. The LC50 is the concentration that kills 50% of the test population. Lower therefore signals greater toxicity. The term EC50 denotes the concentration needed to bring the measured effect to its halfway point. Usually MTD stands for the highest dose tested that stayed within the study's limit of toxicity. A higher MTD goes with better tolerability.

Values joined by “and” are separate entries in the source; they are usually repeats but may differ in a detail not shown here. Identical values can stand only once. “Also recorded” adds a separate entry of the source.

Results on two compounds are retold here after patent US8546421B1, “Oncogenic-RAS-signal dependent lethal compounds” (The Trustees of Columbia University in the City of New York, priority 2007, dated 2013).

One data set deals with HOP-62. Briefly: NCI60 anti-cancer screening. Particulars: Non-small cell lung carcinoma. Type of data set: cell-based.
The test system of data set [1] is BJ-TERT/LT/ST/RAS^V12 cells. Nature of the data set: Effect of cell cycle inhibitors on Compound 36-induced cell death. Type of data set: cell-based, human. Particulars: apigenin, monastrol, olomoucine, nocodazole, hydroxyurea, colchicine, rapamycin. As to the method: BJ-TERT/LT/ST/RAS^V12 cells were seeded in a 384-well assay plate at a concentration of 4,000 cells per well in 32 μL culture volume. Cells were treated with cell cycle inhibitors by transferring 4 μL of 500 μM apigenin (Sigma, cat.#A3145), 1.5 mM monastrol (Sigma, cat.#M8515), 1 mM olomoucine (Sigma, cat.#00886), 2 μM Nocodazole (Sigma, cat.#M1404), 6 mM Hydroxy-urea (Sigma, cat.#H8627), 0.1 μM colchicine (Sigma, cat.#D6165), or 50 μM Rapamycine (Sigma, cat.#RO395) in growth media to the assay plate. […] The assay plate was incubated for 24 hours and alamar blue was added to the assay plate at a final concentration of 10%.

Another data set concerns SNB-19. Briefly: NCI60 anti-cancer screening. Particulars: for GI50 / CC50: Homo sapiens; for GI50 / GI 100%: SNB-19; for CC50: SNB-19, read-out: LC 50%; for GI 100%: CNS Cancer.
A further data set deals with OVCAR-5. Nature of the data set: NCI60 anti-cancer screening. Particulars: for GI50 / CC50: Homo sapiens; for GI50 / GI 100%: OVCAR-5; for CC50: OVCAR-5, read-out: LC 50%; for GI 100%: Ovarian Cancer.
The next data set concerns NCI-H226. Briefly: NCI60 anti-cancer screening. Particulars: for GI50 / CC50: Homo sapiens; for GI50 / GI 100%: NCI-H226; for CC50: NCI-H226, read-out: LC 50%; for GI 100%: Non-small cell lung carcinoma.
The test system of the next data set is NCI-H322M. Nature of the data set: NCI60 anti-cancer screening. Particulars: for GI50 / CC50: Homo sapiens; for CC50: read-out: LC 50%; for GI 100%: Non-small cell lung carcinoma.
For another data set, the system named is U251. Briefly: NCI60 anti-cancer screening. Particulars: for GI50 / CC50: Homo sapiens; for GI50: U-251; for CC50: U-251, read-out: LC 50%; for GI 100%: U251, CNS Cancer.
Another data set has as its system HCT-15. Nature of the data set: NCI60 anti-cancer screening. Particulars: for GI 100% / GI50: HCT-15; for GI 100%: Colon Cancer; for GI50 / CC50: Homo sapiens; for CC50: HCT-15, read-out: LC 50%.
The subject of data set [2] is BJeH, BJeHLT, BJeLR and DRD cells. Nature of the data set: Cell growth inhibition by stereoisomers of Compound 27. Particulars: Homo sapiens.
Data set [3] relates to 60 different human cancer cell lines (the NCI60 panel). Briefly: NCI60 anti-cancer screening, whole panel. The format is cell-based. As to the method:
NCI60 anti-cancer screening (“NCI60 test”) is a system that provides an opportunity to assess a drug candidate's potency and selectivity at a relatively early stage of drug discovery. […] Such compounds would be expected to kill sensitive cancer cells while having minimal effect on healthy cells in a predetermined concentration range. NCI60 anti-cancer screening makes use of 60 cancer cell lines from different human tissue origins. Cells are seeded on a 96-well plate, treated with lethal compounds in 5-point, 10-fold dilution series pattern starting at 100 μM (i.e. 10 nM, 100 nM, 1 μM, 10 μM, 100 μM) for 2 days, and measured for cell viability using sulforhodamine B dye. The optical densities of treated samples are determined using a plate reader and percent growth value is calculated by processing the optical density value.
The entire NCI60 test is replicated at least twice to ensure consistency of the data and to determine accurate GI50, TGI and LC50 values. The panel of results for each candidate compound in the NCI60 test is known as the “sensitivity profile.”

The test system of another data set is HT1080 cells. Nature of the data set: Alamar blue assay with bioactive suppressors in HT1080. The format is cell-based, human. Particulars: 150 μM DFOM, 10 μM U0126, 50 μM SU6656, or 100 μM Vitamin E. As to the method:
(§1) On the day of experiment, assay plates were prepared by seeding 3,000 HT1080, HT1080-pLKO, HT1080-TfR1 KD, Calu-1, Calu-1-pLKO, or Calu-1-509 cells per well in 36 μL of growth media to black, clear bottom 384-well plates. Also, assay plates were prepared by seeding 1,500 shRNA infected HT1080 or Calu-1 cells per well. Cells in assay plates were treated with each lethal compound in a 2-fold dilution series by transferring 4 μL solution from a 10× lethal plate of Erastin, Compound 3, Compound 27, or Compound 36. […] Percent growth inhibition (% GI) was calculated using fluorescence intensity values.

Data set [4] has as its system Calu-1 cells expressing shRNAs targeting HRAS, NRAS or KRAS. Briefly: Drug sensitivity after shRNA knockdown of RAS. Type of data set: cell-based, human. Particulars: alamar blue. As to the method:
On day one, 3×10^5 Calu-1 cells or 2×10^5 HT1080 cells were seeded in 10-cm dishes; on day 2, frozen virus stock was thawed at 37° C., hexadimethrine bromide (polybrene) (Sigma, cat.#H9268) was added to the virus solution at a final concentration of 8 μg/mL and growth media from cell culture was replaced with the virus/polybrene mixture. The culture was returned to the tissue culture incubator for 2 hours, with rocking of the dishes every 30 min in order to prevent drying. After 2 h, 10 mL growth medium was added, the culture was incubated for 2 days, and cells stably expressing shRNA were selected by adding puromycin (Sigma, cat.#P9620) at a final concentration of 1.5 μg/mL.
as §1

Data set [5] in a line: Maximum tolerated dose in mice. The format is in vivo. Particulars: mouse, in vivo, ip, single intraperitoneal injection in sterile PBS. As to the method:
(§2) The maximum tolerated dose of Compound 27 was tested in mice.
(§3) Each mouse in the study was administered a single intraperitoneal injection of Compound 27 dissolved in sterile PBS at 100 mg/kg, 200 mg/kg, or 400 mg/kg.

The test system of another data set is mice. Briefly: Maximum tolerated dose in mice. The format is in vivo. Particulars: single intraperitoneal injection at 100, 200 or 400 mg/kg. As to the method: as §2, §3

On to `C=C1CCC2C(C)(C)CCC[C@]2(C)C1CC/C(C)=C\CC/C(C)=N/NC(N)=S` (some centres unmarked) [Compound 36], for which the GI50 in the data set on HOP-62 (Homo sapiens) was 405 nM; in the data set with SNB-19, 1050 nM; in the data set with OVCAR-5, 492 nM; in the data set on NCI-H226 it was 480 nM; in the data set with NCI-H322M, 606 nM; in the data set on U251, 470 nM. For the same compound, growth in the data set on HCT-15 was halved (GI50) at 305 nM. This compound showed an LC50 with HOP-62 (Homo sapiens) of 3770 nM. Also, the “GI 100%” value in the data set with HOP-62 is 1.42 µM; with SNB-19, 2.29 µM; in the data set with OVCAR-5 it was 1.62 µM; in the data set with NCI-H226, 1.66 µM; in the data set on NCI-H322M, 1.99 µM; in the data set with U251, 1.7 µM. Besides, the “GI 100%” value with HCT-15 was determined as 1.53 µM. In data set [1], the “effect of cell cycle blockers on compound-induced cell death” value is listed as “None of cell cycle blockers were effective”. The CC50 in the data set on SNB-19 stood at 5000 nM; in the data set on OVCAR-5, 4330 nM; in the data set with NCI-H226, 4550 nM; with NCI-H322M it was 4930 nM; in the data set with U251 it was 4120 nM; in the data set with HCT-15 it was 3930 nM.

On to `COC(=O)c1ccc(C2c3[nH]c4ccccc4c3CC(C(=O)OC)N2C(=O)CCl)cc1` (centres unmarked) [Compound 27], for which the EC50 in data set [2] is ~0.05 µg/mL and ~100 nM. Moreover, the GI50 was found to be 2350 nM with SNB-19; 2240 nM with OVCAR-5; 688 nM in the data set on NCI-H226; 3600 nM in the data set with NCI-H322M; 1100 nM in the data set with U251; 1450 nM in the data set on HCT-15. In addition, the CC50 in the data set with SNB-19 was over 10000 nM; in the data set with OVCAR-5, over 10000 nM; in the data set with NCI-H226, over 10000 nM; in the data set with NCI-H322M, over 10000 nM; with U251 it was 4790 nM; with HCT-15 it was 5540 nM. The “GI 100%” value is 7.41 µM in the data set on SNB-19; 5.71 µM in the data set on OVCAR-5; 2.79 µM in the data set with NCI-H226; over 10 µM in the data set on NCI-H322M; 2.3 µM in the data set with U251; 2.83 µM with HCT-15. Also, in [3], the “difference in sensitivity between resistant and sensitive cell lines” value was “up to 10^4 fold”. Besides, the “potency / selectivity in NCI60 (in words)” value in data set [3] is “nanomolar (nM) concentration range”. In the data set on HT1080 cells, the “treatments that inhibit compound-induced cell death in HT1080 cells” value is given as “iron chelators, MEK inhibitors or non-receptor tyrosine kinase inhibitors effectively inhibited”. The “sensitivity of Calu-1 cells after RAS shRNA compared with parental cells” value in data set [4] is reported as “more resistant; also recorded: less effective”. In data set [5], this compound displayed an MTD of over 400 mg/kg. In the data set with mice, the mortality result was “None of the mice died”.
